Laboratory results from patent EP0328089A2, “Reduced size LHRH analogs” (ABBOTT LABORATORIES, priority 1988, dated 1989).
Where a SMILES comes first, the peptide text is derived from it. [ ]: non-standard residue; d: D form. The star is where a group is joined. Propanoyl(3-(1-naphthyl)) = O=C(CCc1cccc2ccccc12)*; Propanoyl(3-indol-3-yl) = O=C(CCc1c[nH]c2ccccc12)*; d2Nal = N[C@H](Cc1ccc2ccccc2c1)C(=O)O

Test system: plasma LH levels
Assay: Plasma LH level during and after i.v. infusion (Figures 1 and 2)
Format: in vivo
Conditions: mature castrate male rats, plot only, compound characterised in words
Description: Figures 1 and 2 illustrate the effect on plasma LH levels in mature castrate male rats during and after i.v. infusion of compounds 20 and 24, respectively.

| SMILES | effect on plasma LH levels |
| --- | --- |
| CCNC(=O)[C@@H]1CCCN1C(=O)[C@H](CCCNC(=N)N)NC(=O)[C@H](CC(C)C)NC(=O)[C@@H](Cc1ccc2ccccc2c1)NC(=O)[C@H](Cc1ccc(O)cc1)NC(=O)[C@H](CO)NC(=O)CCc1cccc2ccccc12 [compound 20] ({Propanoyl(3-(1-naphthyl))}-SY[d2Nal]LRP-NHEt) | LHRH antagonist |
| CCNC(=O)[C@@H]1CCCN1C(=O)[C@H](CCCNC(=N)N)NC(=O)[C@H](CC(C)C)NC(=O)[C@@H](Cc1c[nH]c2ccccc12)NC(=O)[C@H](Cc1ccc(O)cc1)NC(=O)[C@H](CO)NC(=O)CCc1c[nH]c2ccccc12 [compound 24, (4-9)[N-(3-(3-Indole)propionyl)-Ser⁴-D-Trp⁶-Pro⁹-NHEt] LHRH] ({Propanoyl(3-indol-3-yl)}-SY[dW]LRP-NHEt) | LHRH agonist |
